From US8802664B2 (Bioproject, priority 2010, dated 2014) come the findings set out here.

A value given as a limit tells only on which side of the number the result lay.

T1 sequence (Q9H3N8 whole entry): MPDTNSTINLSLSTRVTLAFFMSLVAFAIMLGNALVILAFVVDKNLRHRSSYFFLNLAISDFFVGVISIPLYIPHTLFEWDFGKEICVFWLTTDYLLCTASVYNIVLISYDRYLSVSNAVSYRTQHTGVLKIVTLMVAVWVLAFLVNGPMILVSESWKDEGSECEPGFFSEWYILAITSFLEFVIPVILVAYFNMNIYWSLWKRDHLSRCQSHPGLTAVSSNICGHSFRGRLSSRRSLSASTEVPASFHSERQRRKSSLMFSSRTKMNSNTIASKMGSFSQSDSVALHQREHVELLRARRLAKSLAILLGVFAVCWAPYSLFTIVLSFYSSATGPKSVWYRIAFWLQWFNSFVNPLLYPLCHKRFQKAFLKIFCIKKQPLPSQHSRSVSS

This assay addresses T1, human H4 receptor (Homo sapiens, UniProt Q9H3N8).
T1 construct: expressed in transfected cells
In words: [3H]Histamine binding on membranes of CHO cells stably expressing human H4 receptor. As to the method: CHO cells stably expressing human H4 receptor were grown until sub-confluence and centrifuged at 300 g 15 minutes at 4° C. Pellets were resuspended in buffer I Tris-HCl 50 mM, MgCl2 10 mM, NaCl 140 mM, pH=7.4 supplemented by a 1/50 dilution of a mix of protease inhibitors. The obtained suspension is stirred gently and submitted to a […] exerted through a syringe. The cell lysate is then centrifuged at 300 g 15 minutes at 4° C. in order to eliminate nucleus and cell scraps. The obtained supernatant was then centrifuged at 48000 g for 30 minutes at 4° C. The final pellet is resuspended in buffer I with a potter homogenizer. Aliquots were frozen in liquid nitrogen and stored until use at −80° C. Protein content is measured by the Bradford method.
Defreezed membranes were diluted at a final concentration of 20 μg/180 μL/well in a binding buffer containing 50 mM Tris/HCl, 0.5 mM EDTA, pH=7.4 and distributed in 96 well polystyrene microplate. [^3H] […] Non specific binding was estimated in the presence of 10 μM BP1.2404 (JNJ 7777120). The reaction was terminated by filtration through GF/B filters pre-soaked 2 hours at 4° C. in […]. Filters were rinsed 3 times with 250 μl of ice cold incubation binding buffer.
The filter-bound radioactivity was measured in a liquid scintillation counter Microbeta TRILUX® with 50 μl of scintillation fluid.
The hH4 binding investigated by use of [^3H]
For `CCCOc1cccc(C(OC2CCN(C)CC2)c2nc3ccccc3s2)c1` (centres unmarked) [Example 26, 2-[(1-methylpiperidin-4-yloxy)(3-propoxy-phenyl)methyl]benzothiazole], the Ki or IC50 activity class is less than 30 nM.
`CN1CCC(OC(c2cccc(Oc3ccccc3)c2)c2nc3ccccc3s2)CC1` (centres unmarked) [Example 28, 2-[(1-methylpiperidin-4-yloxy)(3-phenoxy-phenyl)methyl]benzothiazole] came in with a Ki or IC50 activity class of less than 300 nM.
`Cc1ccc2sc(C(OC3CCN(C)CC3)c3ccccc3)nc2c1` (centres unmarked) [Example 29, 5-methyl-2-[(1-methylpiperidin-4-yloxy)phenylmethyl]benzothiazole]: the Ki or IC50 activity class was less than 1000 nM.
The value for `CN1CCC(OC(c2cccc(C(F)(F)F)c2)c2nc3ccccc3s2)CC1` (centres unmarked) [Example 31, 2-[(1-methylpiperidin-4-yloxy)(3-trifluoromethylphenyl)methyl]benzothiazole] was less than 30 nM.
For `CN1CCC(OC(c2ccc3c(c2)CCO3)c2nc3ccccc3s2)CC1` (centres unmarked) [Example 32, 2-[(2,3-dihydrobenzofuran-5-yl)(1-methylpiperidin-4-yloxy)methyl]benzothiazole], the Ki or IC50 activity class was less than 300 nM.
`CN1CCC(OC(c2ccccc2)c2nc3cc(F)ccc3s2)CC1` (centres unmarked) [Example 33, 5-fluoro-2-[(1-methylpiperidin-4-yloxy)phenylmethyl]benzothiazole] registered a Ki or IC50 activity class of less than 300 nM.
The value for `Cc1cc(C(OC2CCN(C)CC2)c2nc3ccccc3s2)ccc1F` (centres unmarked) [Example 34, 2-[(4-fluoro-3-methylphenyl)(1-methylpiperidin-4-yloxy)methyl]benzothiazole] was less than 300 nM.
The molecule `Cc1cc(C(NC2CCN(C)CC2)c2nc3ccccc3s2)ccc1F` (centres unmarked) [Example 35, [benzothiazol-2-yl(4-fluoro-3-methyl-phenyl)methyl](1-methylpiperidin-4-yl)amine] had a Ki or IC50 activity class of less than 1000 nM.
In the case of `Cc1ccc(C(NC2CCN(C)CC2)c2nc3ccccc3s2)cc1` (centres unmarked) [Example 36, (benzothiazol-2-yl-p-tolylmethyl)(1-methylpiperidin-4-yl)amine], the Ki or IC50 activity class is less than 300 nM.
`CN1CCC(NC(c2cc3ccccc3o2)c2nc3ccccc3s2)CC1` (centres unmarked) [Example 37, [(benzofuran-2-yl)(benzothiazol-2-yl)methyl](1-methylpiperidin-4-yl)amine] yielded a Ki or IC50 activity class of less than 1000 nM.
`Cc1cc(F)cc(C(OC2CCN(C)CC2)c2nc3ccccc3s2)c1` (centres unmarked) [Example 38, 2-[(3-fluoro-5-methylphenyl)(1-methylpiperidin-4-yloxy)methyl]benzothiazole] displayed a Ki or IC50 activity class of less than 300 nM.
In the case of `COc1cc(F)cc(C(OC2CCN(C)CC2)c2nc3ccccc3s2)c1` (centres unmarked) [Example 40, 2-[(3-fluoro-5-methoxyphenyl)(1-methylpiperidin-4-yloxy)methyl]benzothiazole] it was less than 30 nM; in that of `CN1CCC(OC(c2cccc(I)c2)c2nc3ccccc3s2)CC1` (centres unmarked) [Example 41, 2-[(3-iodophenyl)(1-methylpiperidin-4-yloxy)methyl]benzothiazole], less than 30 nM.
For the molecule `COc1cc(F)cc(C(NC2CCN(C)CC2)c2nc3ccccc3s2)c1` (centres unmarked) [Example 43, [benzothiazol-2-yl(3-fluoro-5-methoxyphenyl)methyl](1-methylpiperidin-4-yl)amine], the Ki or IC50 activity class was less than 300 nM.
The molecule `CN1CCC(OC(c2cccc(OCc3ccccc3)c2)c2nc3ccccc3s2)CC1` (centres unmarked) [Example 45, 2-[(3-benzyloxyphenyl)(1-methylpiperidin-4-yloxy)methyl]benzothiazole] showed a Ki or IC50 activity class of less than 30 nM.
For `CN1CCC(OC(c2ccc3occc3c2)c2nc3ccccc3s2)CC1` (centres unmarked) [Example 46, 2-[benzofuran-5-yl(1-methylpiperidin-4-yloxy)methyl]benzothiazole], the Ki or IC50 activity class is less than 300 nM.
The value for `CCOc1cccc(C(OC2CCN(C)CC2)c2nc3ccccc3s2)c1` (centres unmarked) [Example 47, 2-[(3-ethoxyphenyl)(1-methylpiperidin-4-yloxy)methyl]benzothiazole] was less than 30 nM.
In the case of `CN1CCC(NC(c2cccc(I)c2)c2nc3ccccc3s2)CC1` (centres unmarked) [Example 48, [benzothiazol-2-yl(3-iodophenyl)methyl](1-methylpiperidin-4-yl)amine] it was less than 300 nM.
With `CN1CCC(OC(c2cccc(-c3ccccc3)c2)c2nc3ccccc3s2)CC1` (centres unmarked) [Example 53, 2-[biphenyl-3-yl(1-methylpiperidin-4-yloxy)methyl]benzothiazole], the Ki or IC50 activity class is less than 300 nM.
The molecule `CN1CCC(OC(c2cccc(-c3cccc(CO)c3)c2)c2nc3ccccc3s2)CC1` (centres unmarked) [Example 54] registered a Ki or IC50 activity class of less than 300 nM.
The value for `CC(C)Oc1cccc(C(OC2CCN(C)CC2)c2nc3ccccc3s2)c1` (centres unmarked) [Example 55, 2-[(3-isopropoxyphenyl)(1-methylpiperidin-4-yloxy)methyl]benzothiazole] was less than 30 nM.
The value for `CN1CCC(OC(c2cccc(-c3cccnc3)c2)c2nc3ccccc3s2)CC1` (centres unmarked) [Example 63, 2-[(1-methylpiperidin-4-yloxy)(3-pyridin-3-ylphenyl)methyl]benzothiazole] was less than 300 nM; that for `CN1CCC(NC(c2cccc(Br)c2)c2nc3ccccc3[nH]2)CC1` (centres unmarked) [Example 64, [(1H-benzimidazol-2-yl)(3-bromophenyl)methyl](1-methylpiperidin-4-yl)amine] was less than 1000 nM; that for `CCCCOc1cccc(C(NC2CCN(C)CC2)c2nc3ccccc3[nH]2)c1` (centres unmarked) [Example 69, [(1H-benzimidazol-2-yl)(3-butoxyphenyl)methyl](1-methylpiperidin-4-yl)amine] was less than 30 nM.
Molecule `CN1CCC(OC(c2cccc(OS(=O)(=O)C(F)(F)F)c2)c2nc3ccccc3s2)CC1` (centres unmarked) [Example 71, trifluoromethanesulfonic acid 3-[benzothiazol-2-yl(1-methylpiperidin-4-yloxy)methyl]phenyl ester] had a Ki or IC50 activity class of less than 300 nM.
The value for `CN1CCC(NC(c2cccc(F)c2)c2nc3ccccc3[nH]2)CC1` (centres unmarked) [Example 74, [(1H-benzimidazol-2-yl)(3-fluorophenyl)methyl](1-methylpiperidin-4-yl)amine] was less than 300 nM; that for `CCCCCCc1cccc(C(NC2CCN(C)CC2)c2nc3ccccc3[nH]2)c1` (centres unmarked) [Example 76, [(1H-benzimidazol-2-yl)(3-hexylphenyl)methyl](1-methylpiperidin-4-yl)amine] was less than 300 nM; that for `CN1CCC(OC(c2cccc(Br)c2)c2nc3ccccc3[nH]2)CC1` (centres unmarked) [Example 78, 2-[(3-bromophenyl)(1-methylpiperidin-4-yloxy)methyl]-1H-benzimidazole] was less than 300 nM.
The value for `CN1CCC(OC(c2cccc(-c3cccc(N)c3)c2)c2nc3ccccc3s2)CC1` (centres unmarked) [Example 79, 3′-[benzothiazol-2-yl(1-methylpiperidin-4-yloxy)methyl]biphenyl-3-ylamine] was less than 300 nM.
The value for `CCCCc1cccc(C(OC2CCN(C)CC2)c2nc3ccccc3s2)c1` (centres unmarked) [Example 80, 2-[(3-butylphenyl)(1-methylpiperidin-4-yloxy)methyl]benzothiazole] was less than 300 nM.
In turn, `CN1CCC(OC(c2cccc(-c3ccccc3)c2)c2nc3ccccc3[nH]2)CC1` (centres unmarked) [Example 81, 2-[biphenyl-3-yl(1-methylpiperidin-4-yloxy)methyl]-1H-benzimidazole] gave a Ki or IC50 activity class of less than 300 nM.
Regarding `CN1CCC(NC(c2cccc(Br)c2)c2nc3ccccc3s2)CC1` (centres unmarked) [Example 82, [benzothiazol-2-yl(3-bromophenyl)methyl](1-methylpiperidin-4-yl)amine], the Ki or IC50 activity class was less than 300 nM.
In the case of `Cc1cccc(C(NC2CCN(C)CC2)c2nc3ccccc3[nH]2)c1` (centres unmarked) [Example 84, [(1H-benzimidazol-2-yl)(m-tolyl)methyl](1-methylpiperidin-4-yl)amine] it was less than 1000 nM; in that of `CN1CCC(NC(c2cccc(Oc3ccccc3)c2)c2nc3ccccc3[nH]2)CC1` (centres unmarked) [Example 85, [(1H-benzimidazol-2-yl)(3-phenoxyphenyl)methyl](1-methylpiperidin-4-yl)amine], less than 300 nM; in that of `CN1CCC(OC(c2cccc(-c3cccc(CO)c3)c2)c2nc3ccccc3[nH]2)CC1` (centres unmarked) [Example 86, {3′-[(1H-benzimidazol-2-yl)(1-methylpiperidin-4-yloxy)methyl]biphenyl-3-yl}methanol], less than 300 nM.
`CN1CCC(OC(c2cccc(-c3cccc(N)c3)c2)c2nc3ccccc3[nH]2)CC1` (centres unmarked) [Example 87, 3′-[(1H-benzimidazol-2-yl)(1-methylpiperidin-4-yloxy)methyl]biphenyl-3-ylamine]: the Ki or IC50 activity class was less than 300 nM.
`CC(C)Oc1cccc(C(NC2CCN(C)CC2)c2nc3ccccc3s2)c1` (centres unmarked) [Example 88, [benzothiazol-2-yl(3-isopropoxyphenyl)methyl](1-methylpiperidin-4-yl)amine]: the Ki or IC50 activity class is less than 30 nM.
In the case of `CN1CCC(OC(c2cccc(-c3cccnc3)c2)c2nc3ccccc3[nH]2)CC1` (centres unmarked) [Example 89, 2-[(1-methylpiperidin-4-yloxy)(3-pyridin-3-ylphenyl)methyl]-1H-benzimidazole] it was less than 300 nM.
